*1 amine or outer side, *2 acyl side, *3 side chain or, on linkers, in order; H or OH if unused. Where no end group is shown, it is not given here. [ ]: non-standard residue; d: D form. The star is where a group is joined. MeYm = N-methyl-p-methoxyphenylalanine, COc1ccc(C[C@@H](C(=O)[*:2])N(C)[*:1])cc1; NMeY = CN[C@@H](Cc1ccc(O)cc1)C(=O)O; NMeF = CN[C@@H](Cc1ccccc1)C(=O)O; NMeNle = CCCC[C@H](NC)C(=O)O; NMeNva = CCC[C@H](NC)C(=O)O; NMeV = CN[C@H](C(=O)O)C(C)C; NMeS = CN[C@@H](CO)C(=O)O; NMeA = CN[C@@H](C)C(=O)O; Sar = CNCC(=O)O; For = O=C*
System: FIT system (reconstituted E. coli cell-free translation system)
Test: In vitro translation in FIT system, peptide expression level by tricine-SDS-PAGE autoradiography
Format: biochemical
Details: mRNA14, 9 different ^MeAAs; control translation using 20 pAAs; FIG. 6d, 6e

P14: 32-mer model peptide composed of 9 respectively different ^MeAAs and 14 pAAs, translated from mRNA14 (For-MKKK[NMeS]HM[Sar][NMeV]TE[NMeNle]S[NMeY][NMeA]QN[MeYm]GW[NMeNva]R[NMeF]PDYKDDDDK)
Expression efficiency relative to the control: 34%

From patent US20260242776A1, “Modification of tRNA T-Stem for Enhancing N-Methyl Amino Acid Incorporation” (priority 2019, published 2026)
